Patent publication US8273773B2 (priority 2008, dated 2012)

Assays:
[1] = molecular target: T1, HCV polymerase (NS5B570n-Con1) (Hepatitis C virus genotype 1b, UniProt Q9WMX2); assay: biochemical; parameters: species or system HCV Con1 strain;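 note: recombinant His-tagged enzyme from E. coli, radiolabeled nucleotide incorporation into acid-insoluble RNA read by scintillation after filtration, no-enzyme background subtracted, activity relative to positive control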
T1 construct: contains a 21 amino acid deletion at the C-terminus relative to the full-length HCV polymerase; 6-histidine (N); made in house; host or cells: E. coli strain BL21(DE) pLysS (pET17b)

[2] = IC50 HCV NS5B RNA Polymerase Assay, values without asterisk, 20 nM NS5B570n-Con1 enzyme, 20 nM cIRES RNA template
[3] = IC50 HCV NS5B RNA Polymerase Assay (values with asterisk), values with asterisk: cIRES RNA template, 3 nM NS5B570n-Con1

COc1c(CCc2ccc(NS(C)(=O)=O)cc2C)cc(-c2ccc[nH]c2=O)cc1C(C)(C)C [I-109, N-(4-{2-[3-tert-Butyl-2-methoxy-5-(2-oxo-1,2-dihydro-pyridin-3-yl)-phenyl]-ethyl}-3-methyl-phenyl)-methanesulfonamide]
IC50 [1, 2]: 7 nM | melting point: 240 to 242 °C

COc1c(CCc2ccc(NS(C)(=O)=O)c(C)c2)cc(-c2ccc[nH]c2=O)cc1C(C)(C)C [I-110]
IC50 [1, 2]: 16 nM | melting point: 114 to 116 °C

COc1c(C(=O)Nc2cccc(CNS(C)(=O)=O)c2)cc(-c2ccc[nH]c2=O)cc1C(C)(C)C [I-112, 3-tert-Butyl-N-[3-(methanesulfonylamino-methyl)-phenyl]-2-methoxy-5-(2-oxo-1,2-dihydro-pyridin-3-yl)-benzamide]
IC50 [1, 2]: 48 nM | melting point: 145 to 147 °C

CC(C)(C)c1cc(CCc2ccc(NS(C)(=O)=O)cn2)c(C#N)c(-c2ccc[nH]c2=O)c1 [I-114, N-(6-{2-[5-tert-Butyl-2-cyano-3-(2-oxo-1,2-dihydro-pyridin-3-yl)-phenyl]-ethyl}-pyridin-3-yl)-methanesulfonamide]
IC50 [1, 2]: 15 nM | melting point: 143 to 145 °C

CCOc1cc(NS(C)(=O)=O)ccc1C(=O)Nc1cc(-c2ccc[nH]c2=O)cc(C(C)(C)C)c1OC [I-115]
IC50 [1, 2]: 9 nM | melting point: 290 to 292 °C

COc1c(NC(=O)c2ccc(NS(C)(=O)=O)cc2Cl)cc(-c2ccc[nH]c2=O)cc1C(C)(C)C [I-116]
IC50 [1, 2]: 11 nM | melting point: 263 to 265 °C

CC(C)(C)c1cc(CCc2ccc(NS(C)(=O)=O)cc2)c(OCCO)c(-c2ccc[nH]c2=O)c1 [I-118, N-(4-{2-[5-tert-Butyl-2-(2-hydroxy-ethoxy)-3-(2-oxo-1,2-dihydro-pyridin-3-yl)-phenyl]-ethyl}-phenyl)-methanesulfonamide]
IC50 [1, 2]: 15 nM | melting point: 223 to 225 °C

COc1c(NC(=O)c2ccc(N)c(F)c2)cc(-c2ccc[nH]c2=O)cc1C(C)(C)C [I-120]
IC50 [1, 2]: 3 nM | melting point: 283 to 285 °C

COc1c(NC(=O)c2ccc(NS(C)(=O)=O)c(F)c2)cc(-c2ccc[nH]c2=O)cc1C(C)(C)C [I-121]
IC50 [1, 2]: 7 nM | melting point: 270 to 272 °C

CC(C)(C)c1cc(CCc2ccc(NS(C)(=O)=O)cc2)c(C(N)=O)c(-c2ccc[nH]c2=O)c1 [I-122, 4-tert-Butyl-2-[2-(4-methanesulfonylamino-phenyl)-ethyl]-6-(2-oxo-1,2-dihydro-pyridin-3-yl)-benzamide]
IC50 [1, 2]: 3 nM | melting point: 170 to 172 °C

COc1c(CCc2ccc(NS(C)(=O)=O)nc2)cc(-c2ccc[nH]c2=O)cc1C(C)(C)C [I-123]
IC50 [1, 2]: 3 nM | melting point: 140 to 142 °C

COc1c(CCc2ccc(NS(C)(=O)=O)cn2)cc(-c2ccc[nH]c2=O)cc1C(C)(C)C [I-124]
IC50 [1, 2]: 3 nM | melting point: 131 to 133 °C

COc1c(CCc2cnc(NS(C)(=O)=O)nc2)cc(-c2ccc[nH]c2=O)cc1C(C)(C)C [I-125]
IC50 [1, 2]: 16 nM | melting point: 282 to 283 °C

COc1c(CCc2ccc(NS(C)(=O)=O)nn2)cc(-c2ccc[nH]c2=O)cc1C(C)(C)C [I-127]
IC50 [1, 2]: 4 nM | melting point: 218 to 220 °C

COc1c(CCc2ccc(N)nn2)cc(-c2ccc[nH]c2=O)cc1C(C)(C)C [I-128]
IC50 [1, 2]: 5 nM | melting point: 142 to 144 °C

COc1c(CCc2cnc(NS(C)(=O)=O)cn2)cc(-c2ccc[nH]c2=O)cc1C(C)(C)C [I-133]
IC50 [1, 2]: 16 nM | melting point: 282 to 283 °C

CC(C)(C)c1cc(/C=C/c2ccc(NS(C)(=O)=O)cc2)c(O)c(-c2ccc[nH]c2=O)c1 [I-137]
IC50 [1, 2]: 10 nM | melting point: 180 to 182 °C

COc1c(/C=C(\C#N)c2ccc(NS(C)(=O)=O)cc2)cc(-c2ccc[nH]c2=O)cc1C(C)(C)C [I-138, N-(4-{(Z)-2-[3-tert-Butyl-2-methoxy-5-(2-oxo-1,2-dihydro-pyridin-3-yl)-phenyl]-1-cyano-vinyl}-phenyl)-methanesulfonamide]
IC50 [1, 2]: 10 nM | melting point: 288 to 290 °C

COc1c(/C=C(\C)c2ccc(NS(C)(=O)=O)cc2)cc(-c2ccc[nH]c2=O)cc1C(C)(C)C [I-139, N-(4-{(E)-2-[3-tert-Butyl-2-methoxy-5-(2-oxo-1,2-dihydro-pyridin-3-yl)-phenyl]-1-methyl-vinyl}-phenyl)-methanesulfonamide]
IC50 [1, 2]: 8 nM | melting point: 292 to 294 °C

Cc1ccc(-c2cc(C(C)(C)C)cc(/C=C/c3ccc(NS(C)(=O)=O)cc3)c2O)c(=O)[nH]1 [I-140]
IC50 [1, 2]: 322 nM | melting point: 258 to 260 °C

CC(C)(C)c1cc(/C=C/c2ccc(NS(C)(=O)=O)cc2)cc(-c2ccc[nH]c2=O)c1 [I-141, N-(4-{(E)-2-[3-tert-Butyl-5-(2-oxo-1,2-dihydro-pyridin-3-yl)-phenyl]-vinyl}-phenyl)-methanesulfonamide]
IC50 [1, 2]: 26 nM | melting point: 260 to 262 °C

COc1c(/C=C/c2ccccc2)cc(-c2ccc[nH]c2=O)cc1C(C)(C)C [I-144]
IC50 [1, 2]: 11 nM | melting point: 183 to 185 °C

CC(C)(C)c1cc(/C=C/c2ccc(NS(C)(=O)=O)cc2C#N)cc(-c2ccc[nH]c2=O)c1 [I-147, N-(4-{(E)-2-[3-tert-Butyl-5-(2-oxo-1,2-dihydro-pyridin-3-yl)-phenyl]-vinyl}-3-cyano-phenyl)-methanesulfonamide]
IC50 [1, 2]: 2 nM | melting point: > 300 °C

CC(C)(C)c1cc(/C=C/c2ccc(NS(C)(=O)=O)cc2)cc(-c2cc(F)c[nH]c2=O)c1 [I-148]
IC50 [1, 2]: 6 nM | melting point: 210 to 212 °C

COc1c(/C=C/c2ccc(NS(C)(=O)=O)cc2C#N)cc(-c2ccc[nH]c2=O)cc1C(C)(C)C [I-150, N-(4-{(E)-2-[3-tert-Butyl-2-methoxy-5-(2-oxo-1,2-dihydro-pyridin-3-yl)-phenyl]-vinyl}-3-cyano-phenyl)-methanesulfonamide]
IC50 [1, 2]: 3 nM | melting point: 266 to 268 °C

COc1c(/C=C/c2ccc(NS(C)(=O)=O)cc2C#N)cc(-c2cc(F)c[nH]c2=O)cc1C(C)(C)C [I-151, N-(4-{(E)-2-[3-tert-Butyl-5-(5-fluoro-2-oxo-1,2-dihydro-pyridin-3-yl)-2-methoxy-phenyl]-vinyl}-3-cyano-phenyl)-methanesulfonamide]
IC50 [1, 2]: 5 nM | melting point: 158 to 160 °C

COc1c(CC(CN)c2ccc(NS(C)(=O)=O)cc2)cc(-c2ccc[nH]c2=O)cc1C(C)(C)C (centres unmarked) [I-191, N-(4-{1-Aminomethyl-2-[3-tert-butyl-2-methoxy-5-(2-oxo-1,2-dihydro-pyridin-3-yl)-phenyl]-ethyl}-phenyl)-methanesulfonamide]
IC50 [1, 2]: 27 nM | melting point: 158 to 160 °C

COc1c(CC(CN2CCOCC2)c2ccc(NS(C)(=O)=O)cc2)cc(-c2ccc[nH]c2=O)cc1C(C)(C)C (centres unmarked) [I-193]
IC50 [1, 2]: 12 nM | melting point: 138 to 140 °C

COc1c(CC(CN2CCC(F)(F)C2)c2ccc(NS(C)(=O)=O)cc2)cc(-c2ccc[nH]c2=O)cc1C(C)(C)C (centres unmarked) [I-195]
IC50 [1, 2]: 18 nM | melting point: 133 to 135 °C

COc1c(CC(C)(C#N)c2ccc(NS(C)(=O)=O)cc2)cc(-c2ccc[nH]c2=O)cc1C(C)(C)C (centres unmarked) [I-196, N-(4-{2-[3-tert-Butyl-2-methoxy-5-(2-oxo-1,2-dihydro-pyridin-3-yl)-phenyl]-1-cyano-1-methyl-ethyl}-phenyl)-methanesulfonamide]
IC50 [1, 2]: 30 nM | melting point: 158 to 160 °C

COc1c(CC(C)(CN)c2ccc(NS(C)(=O)=O)cc2)cc(-c2ccc[nH]c2=O)cc1C(C)(C)C (centres unmarked) [I-197, N-(4-{1-Aminomethyl-2-[3-tert-butyl-2-methoxy-5-(2-oxo-1,2-dihydro-pyridin-3-yl)-phenyl]-1-methyl-ethyl}-phenyl)-methanesulfonamide]
IC50 [1, 2]: 84 nM | melting point: 240 to 242 °C

CC(C)(CO)c1cc(CCc2ccc(NS(C)(=O)=O)cc2)c(O)c(-c2ccc[nH]c2=O)c1 [I-199, N-(4-{2-[2-Hydroxy-5-(2-hydroxy-1,1-dimethyl-ethyl)-3-(2-oxo-1,2-dihydro-pyridin-3-yl)-phenyl]-ethyl}-phenyl)-methanesulfonamide]
IC50 [1, 2]: 13 nM | melting point: 118 to 120 °C

COc1c(/C=C/c2ccc(NS(C)(=O)=O)cc2CO)cc(-c2ccc[nH]c2=O)cc1C(C)(C)C [I-205, N-(4-{(E)-2-[3-tert-Butyl-2-methoxy-5-(2-oxo-1,2-dihydro-pyridin-3-yl)-phenyl]-vinyl}-3-hydroxymethyl-phenyl)-methanesulfonamide]
IC50 [1, 3]: 2 nM | melting point: 140 to 142 °C

CC1(C)COc2c(/C=C/c3ccc(NS(C)(=O)=O)cc3)cc(-c3ccc[nH]c3=O)cc21 [II-1, N-(4-{(E)-2-[3,3-Dimethyl-5-(2-oxo-1,2-dihydro-pyridin-3-yl)-2,3-dihydro-benzofuran-7-yl]-vinyl}-phenyl)-methanesulfonamide]
IC50 [1, 2]: 5 nM | melting point: 284 to 286 °C

CC1(C)COc2c(-c3ccc[nH]c3=O)cc(/C=C/c3ccc(NS(C)(=O)=O)cc3)cc21 [II-2]
IC50 [1, 2]: 6 nM | melting point: 231 to 233 °C

CC1(C)COc2c(-c3ccc[nH]c3=O)cc(NC(=O)c3ccc(NS(C)(=O)=O)cc3)cc21 [II-4, N-[3,3-Dimethyl-7-(2-oxo-1,2-dihydro-pyridin-3-yl)-2,3-dihydro-benzofuran-5-yl]-4-methanesulfonylamino-benzamide]
IC50 [1, 2]: 33 nM | melting point: > 300 °C

COc1c(/C=C/c2ccc(NS(C)(=O)=O)cc2)cc(-c2ccc[nH]c2=O)c2c1C(C)(C)CC2 [II-5, N-(4-{(E)-2-[4-Methoxy-3,3-dimethyl-7-(2-oxo-1,2-dihydro-pyridin-3-yl)-indan-5-yl]-vinyl}-phenyl)-methanesulfonamide]
IC50 [1, 3]: 1 nM | melting point: 283 to 286.6 °C
